Experimental data: article doi:10.1101/2024.09.26.610356v2 (biorxiv, 2024)

Biological target: T1, human glucose-6-phosphate isomerase (GPI) (Homo sapiens, UniProt P06744)
Test: label-free MST
Assay type: binding

Row | Kd [mM] | Compound
1 | 20.1 ± 2.03 | C/C(=C/C(=O)O)C(=O)O [Citraconate]
2 | 11.1 ± 1.44 | C=C(OP(=O)(O)O)C(=O)O [Phosphoenolpyruvate]
3 | 19.3 ± 0.96 | Nc1ncnc2c1ncn2[C@@H]1O[C@H](COP(=O)(O)OP(=O)(O)O)[C@@H](O)[C@H]1O [ADP]
4 | 14.4 ± 2.07 | O=C(O)/C=C\C(=O)O [Maleate]
5 | 17.5 ± 0.98 | O=C(CO)COP(=O)(O)O [Dihydroxyacetone phosphate]
6 | 13.1 ± 0.64 | NCCc1c[nH]cn1 [Histamine]

Biological target: T2, human triosephosphate isomerase (TPI) (Homo sapiens, UniProt P60174)
T2 sequence (P60174 whole entry): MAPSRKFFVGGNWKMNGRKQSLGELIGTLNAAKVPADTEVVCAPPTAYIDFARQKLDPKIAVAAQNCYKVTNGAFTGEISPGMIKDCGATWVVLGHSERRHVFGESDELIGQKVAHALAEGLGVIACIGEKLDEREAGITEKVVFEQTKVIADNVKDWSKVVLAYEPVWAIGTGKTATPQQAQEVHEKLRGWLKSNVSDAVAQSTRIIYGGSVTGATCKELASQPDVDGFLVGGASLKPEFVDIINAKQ
Test: Michaelis-Menten kinetics, GAPDH-coupled assay
Assay type: biochemical

Row | Ki [mM] | Compound
7 | 27.3 | O=C(O)C(=O)O [Oxalate]
8 | 1.89 | O=P(O)(O)OC(CO)CO [Glycerol-2-phosphate]
9 | 2.04 | O=P(O)(O)OC[C@H](O)CO [Glycerol-3-phosphate]

Row | Compound | Ki [mM]
10 | CC(C(=O)O)C(=O)O [Methylmalonate] | 17.3

Biological target: T2, human triosephosphate isomerase (TPI)
Test: label-free MST
Assay type: binding

Row | Kd [mM] | Compound
11 | 19.1 ± 1.38 | O=C(O)C(=O)O [Oxalate]
12 | 5.31 ± 1.07 | O=P(O)(O)OC(CO)CO [Glycerol-2-phosphate]
13 | 6.79 ± 2.3 | O=P(O)(O)OC[C@H](O)CO [Glycerol-3-phosphate]

Row | Compound | Kd [mM]
14 | CC(C(=O)O)C(=O)O [Methylmalonate] | 12.2 ± 1.9

Biological target: T1, human glucose-6-phosphate isomerase (GPI)
Test: G6PDH-coupled kinetic assay, dose response
Assay type: biochemical

Row | EC50 [mM] | Compound
15 | 8.05 ± 2.34 | C/C(=C/C(=O)O)C(=O)O [Citraconate]
16 | 11.8 ± 1.33 | C=C(OP(=O)(O)O)C(=O)O [Phosphoenolpyruvate]
17 | 8.66 ± 1.37 | Nc1ncnc2c1ncn2[C@@H]1O[C@H](COP(=O)(O)OP(=O)(O)O)[C@@H](O)[C@H]1O [ADP]
18 | 9.48 ± 2.85 | O=C(O)/C=C\C(=O)O [Maleate]
19 | 14.6 ± 1.99 | NO [Hydroxylamine]
20 | 8.24 ± 1.94 | O=C(CO)COP(=O)(O)O [Dihydroxyacetone phosphate]
21 | 7.35 ± 1.26 | NCCc1c[nH]cn1 [Histamine]

Biological target: T1, human glucose-6-phosphate isomerase (GPI)
Test: Michaelis-Menten kinetics, G6PDH-coupled assay
Assay type: biochemical

Row | Ki [mM] | Compound
22 | 2.17 | C/C(=C/C(=O)O)C(=O)O [Citraconate]
23 | 5.61 | C=C(OP(=O)(O)O)C(=O)O [Phosphoenolpyruvate]
24 | 3.97 | Nc1ncnc2c1ncn2[C@@H]1O[C@H](COP(=O)(O)OP(=O)(O)O)[C@@H](O)[C@H]1O [ADP]
25 | 7.15 | O=C(O)/C=C\C(=O)O [Maleate]
26 | 21.1 | NO [Hydroxylamine]
27 | 4.47 | O=C(CO)COP(=O)(O)O [Dihydroxyacetone phosphate]
28 | 9.25 | NCCc1c[nH]cn1 [Histamine]

Biological target: T2, human triosephosphate isomerase (TPI)
Test: GAPDH-coupled kinetic assay, dose response
Assay type: biochemical

Row | EC50 [mM] | Compound
29 | 12.6 ± 0.76 | O=C(O)C(=O)O [Oxalate]
30 | 7.31 ± 1.22 | O=P(O)(O)OC(CO)CO [Glycerol-2-phosphate]
31 | 8.65 ± 1.49 | O=P(O)(O)OC[C@H](O)CO [Glycerol-3-phosphate]

Row | Compound | EC50 [mM]
32 | CC(C(=O)O)C(=O)O [Methylmalonate] | 16.3 ± 2.54
